Reference: ChEMBL document CHEMBL1201862, “PubChem BioAssay data set” (2004)
Active and inactive are the calls of the source.

Columns and labels:
BJ [1] = assay: BJ-TERT fibroblast viability loss – cell-based, RAS-independent, luminescence, dose response (AID 1933); format: functional; settings: Homo sapiens
BJ [2] = assay: cells; format: functional, cell-based; settings: Homo sapiens
BJ [3] = assay: BJ-TERT-LT-ST fibroblast viability loss – cell-based, RAS-independent, luminescence, dose response (AID 1935); format: functional; settings: Homo sapiens;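 also: BJ fibroblasts immortalized with TERT plus LT and ST oncogenes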
[4] = DRD fibroblast viability loss – cell-based, non-viral oncogenic, luminescence, dose response (AID 1934); format: functional; settings: Homo sapiens
[5] = target: G-protein coupled receptor 55 (Homo sapiens, UniProt Q9Y2T6); assay: selective activators of receptor GPR55 – imaging, U2OS cells, beta-arrestin-GFP redistribution, primary screen (AID 1961); format: functional
G-protein coupled receptor 55, sequence (Q9Y2T6 whole entry): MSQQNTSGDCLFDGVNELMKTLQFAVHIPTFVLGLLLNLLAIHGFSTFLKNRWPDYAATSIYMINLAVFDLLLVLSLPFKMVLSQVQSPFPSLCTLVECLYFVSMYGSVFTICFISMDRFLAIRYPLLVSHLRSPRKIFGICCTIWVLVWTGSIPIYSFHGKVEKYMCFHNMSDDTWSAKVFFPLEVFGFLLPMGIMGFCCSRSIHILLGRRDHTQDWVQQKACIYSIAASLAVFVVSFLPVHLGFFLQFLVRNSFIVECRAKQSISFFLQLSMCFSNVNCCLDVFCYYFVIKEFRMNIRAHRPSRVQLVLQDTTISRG

[6] = target: T1, Microphthalmia-associated transcription factor (Homo sapiens, UniProt O75030); assay: reducers of TRPM1 reporter luminescence, concentration series – cell-based, SK-MEL-5, cherry-picked, set 3, MITF inhibitor project, dose response (AID 493073); format: functional;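 also: SK-MEL-5 melanoma cells with luciferase driven by the MITF target TRPM1 promoter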
T1 sequence (O75030 whole entry): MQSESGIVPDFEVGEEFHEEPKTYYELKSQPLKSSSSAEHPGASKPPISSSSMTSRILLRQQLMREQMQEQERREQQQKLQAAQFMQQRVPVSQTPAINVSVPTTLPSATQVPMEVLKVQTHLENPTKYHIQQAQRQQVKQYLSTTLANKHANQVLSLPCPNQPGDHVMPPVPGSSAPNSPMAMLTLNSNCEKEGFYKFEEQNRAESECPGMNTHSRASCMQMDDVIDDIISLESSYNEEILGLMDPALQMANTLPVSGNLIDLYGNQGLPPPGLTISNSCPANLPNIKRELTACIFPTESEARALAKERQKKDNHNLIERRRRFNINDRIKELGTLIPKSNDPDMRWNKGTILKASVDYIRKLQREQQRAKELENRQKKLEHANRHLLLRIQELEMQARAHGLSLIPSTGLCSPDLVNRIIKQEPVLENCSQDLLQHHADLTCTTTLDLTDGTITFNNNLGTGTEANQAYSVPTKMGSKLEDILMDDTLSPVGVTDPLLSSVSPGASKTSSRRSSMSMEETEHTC

BJ [7] = assay: growth inhibition of engineered Ras-driven BJ cells – cell-based, alamar blue fluorescence, cherrypicked samples, dose response (AID 2631); format: functional; settings: Homo sapiens;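 also: confirmatory dose-response assay in RAS-dependent BJ fibroblasts engineered with TERT, LT and ST, with cytotoxicity read by fluorescence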
Prothrombin = Prothrombin (Homo sapiens, UniProt P00734); assay: Thrombin 1536 HTS Dose Response Confirmation. [Related pubchem assays: 1046 (Thrombin 1536 HTS; hits were confirmed in this assay)]; format: functional
Saccharomyces cerevisiae = assay: S. cerevisiae Caspase-1/ASC signal blockers IC50, NALP1 inhibitor project selectivity test (AID 488863); format: functional, organism-based
[8] = target: NACHT, LRR and PYD domains-containing protein 1 (Homo sapiens, UniProt Q9C000); assay: NALP1 inhibitors in yeast, dose response, luminescent (AID 488860); format: functional
NACHT, LRR and PYD domains-containing protein 1, sequence (Q9C000 1-1212 limits assumed): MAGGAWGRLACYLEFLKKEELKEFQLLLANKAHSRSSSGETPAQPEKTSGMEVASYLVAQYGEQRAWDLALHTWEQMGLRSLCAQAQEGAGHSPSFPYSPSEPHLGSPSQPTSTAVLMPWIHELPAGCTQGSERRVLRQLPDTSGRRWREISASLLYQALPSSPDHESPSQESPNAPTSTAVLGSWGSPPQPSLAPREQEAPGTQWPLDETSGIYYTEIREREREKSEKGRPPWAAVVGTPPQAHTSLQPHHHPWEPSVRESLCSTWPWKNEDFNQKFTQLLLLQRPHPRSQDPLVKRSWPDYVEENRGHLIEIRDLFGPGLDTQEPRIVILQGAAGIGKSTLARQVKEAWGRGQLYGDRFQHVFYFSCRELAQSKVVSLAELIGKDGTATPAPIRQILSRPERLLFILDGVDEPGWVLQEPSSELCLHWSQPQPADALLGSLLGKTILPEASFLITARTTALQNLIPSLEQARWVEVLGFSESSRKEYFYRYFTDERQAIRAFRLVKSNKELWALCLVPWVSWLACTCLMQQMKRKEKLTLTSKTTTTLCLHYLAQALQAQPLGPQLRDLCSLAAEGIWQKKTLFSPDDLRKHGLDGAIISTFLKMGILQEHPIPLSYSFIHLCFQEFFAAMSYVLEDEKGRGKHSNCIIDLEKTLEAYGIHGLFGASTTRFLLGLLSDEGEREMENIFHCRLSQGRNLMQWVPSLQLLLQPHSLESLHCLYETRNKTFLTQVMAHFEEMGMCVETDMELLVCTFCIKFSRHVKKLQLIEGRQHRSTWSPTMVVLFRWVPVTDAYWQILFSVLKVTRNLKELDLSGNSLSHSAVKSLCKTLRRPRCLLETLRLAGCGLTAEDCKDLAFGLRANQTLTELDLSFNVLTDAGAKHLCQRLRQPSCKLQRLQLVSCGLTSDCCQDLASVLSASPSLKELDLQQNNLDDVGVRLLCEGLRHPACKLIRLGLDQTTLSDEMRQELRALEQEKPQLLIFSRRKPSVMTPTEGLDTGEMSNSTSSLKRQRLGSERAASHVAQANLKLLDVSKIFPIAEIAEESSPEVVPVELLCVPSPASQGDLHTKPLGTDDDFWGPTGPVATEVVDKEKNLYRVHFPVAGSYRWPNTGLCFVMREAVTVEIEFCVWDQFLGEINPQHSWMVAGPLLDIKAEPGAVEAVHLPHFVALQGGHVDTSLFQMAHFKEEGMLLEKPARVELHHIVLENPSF
NACHT, LRR and PYD domains-containing protein 1, sequence (Q9C000 1213-1473 limits assumed): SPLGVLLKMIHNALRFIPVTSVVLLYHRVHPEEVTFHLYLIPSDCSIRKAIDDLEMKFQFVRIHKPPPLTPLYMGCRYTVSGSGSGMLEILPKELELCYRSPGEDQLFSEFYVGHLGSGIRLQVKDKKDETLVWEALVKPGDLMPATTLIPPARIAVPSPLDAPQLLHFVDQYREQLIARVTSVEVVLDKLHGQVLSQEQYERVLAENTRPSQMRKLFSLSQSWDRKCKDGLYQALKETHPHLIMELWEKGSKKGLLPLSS

[9] = target: T2, Tyrosine-protein phosphatase non-receptor type 7 (Homo sapiens, UniProt P35236); assay: redox-active compounds inhibiting HePTP phosphatase – biochemical, fluorescence, mechanism study (AID 2068); format: functional
T2 sequence (P35236 whole entry): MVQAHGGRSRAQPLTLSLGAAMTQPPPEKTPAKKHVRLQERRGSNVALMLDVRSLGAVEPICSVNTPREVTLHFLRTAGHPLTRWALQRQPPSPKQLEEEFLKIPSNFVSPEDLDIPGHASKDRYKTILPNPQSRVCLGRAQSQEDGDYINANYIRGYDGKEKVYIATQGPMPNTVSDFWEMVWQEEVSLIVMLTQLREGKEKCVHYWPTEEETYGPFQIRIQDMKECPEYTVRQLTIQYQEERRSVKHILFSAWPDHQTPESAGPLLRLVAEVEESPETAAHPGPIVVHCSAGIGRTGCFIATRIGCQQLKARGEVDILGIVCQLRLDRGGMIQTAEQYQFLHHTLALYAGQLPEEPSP

[10] = target: DNA dC->dU-editing enzyme APOBEC-3A (Homo sapiens, UniProt P31941); assay: A3A deaminase inhibition for selectivity – biochemical, dose response (AID 504722); format: functional
DNA dC->dU-editing enzyme APOBEC-3A, sequence (P31941 whole entry): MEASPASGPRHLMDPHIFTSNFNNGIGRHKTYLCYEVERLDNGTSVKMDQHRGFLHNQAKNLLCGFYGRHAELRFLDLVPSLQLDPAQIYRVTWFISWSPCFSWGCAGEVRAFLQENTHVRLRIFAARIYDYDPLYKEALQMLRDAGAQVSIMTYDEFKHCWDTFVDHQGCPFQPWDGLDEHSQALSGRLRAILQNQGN

[11] = target: DNA dC->dU-editing enzyme APOBEC-3G (Homo sapiens, UniProt Q9HC16); assay: Dose Response confirmation of small molecule APOBEC3G DNA Deaminase Inhibitors via a fluorescence-based single-stranded DNA deaminase assay. [Related pubchem assays (depositor defined):AID493012, AID493028]; format: functional
DNA dC->dU-editing enzyme APOBEC-3G, sequence (Q9HC16 whole entry): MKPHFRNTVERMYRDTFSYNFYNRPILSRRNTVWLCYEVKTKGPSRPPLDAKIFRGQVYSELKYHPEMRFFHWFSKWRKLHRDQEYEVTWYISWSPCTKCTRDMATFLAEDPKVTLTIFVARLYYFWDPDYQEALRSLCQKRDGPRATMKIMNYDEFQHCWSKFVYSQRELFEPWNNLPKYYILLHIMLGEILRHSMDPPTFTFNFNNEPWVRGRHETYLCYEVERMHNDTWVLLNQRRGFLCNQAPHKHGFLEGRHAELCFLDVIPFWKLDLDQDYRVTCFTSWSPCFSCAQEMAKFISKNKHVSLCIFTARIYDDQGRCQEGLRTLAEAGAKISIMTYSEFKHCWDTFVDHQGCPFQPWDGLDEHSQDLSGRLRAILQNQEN

[12] = target: FAD-linked sulfhydryl oxidase ALR (Homo sapiens, UniProt P55789); assay: ALR-catalysed DTT oxidation blockers – biochemical, H2O2 detection, luminescence, cherry-pick, dose response (AID 493248)
FAD-linked sulfhydryl oxidase ALR, sequence (P55789 whole entry): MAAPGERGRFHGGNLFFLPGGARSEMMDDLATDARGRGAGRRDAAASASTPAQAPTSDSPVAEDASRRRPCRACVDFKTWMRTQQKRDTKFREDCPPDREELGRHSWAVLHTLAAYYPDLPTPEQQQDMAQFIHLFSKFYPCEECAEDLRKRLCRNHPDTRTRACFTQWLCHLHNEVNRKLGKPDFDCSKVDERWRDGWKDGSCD

## COc1ccc(C(=O)/C=C/C(=O)N(CC(=O)NC2CCCCC2)Cc2ccccc2OC)c(O)c1
BJ [1]
  EC50: 2.2 µM (active)
BJ [2]
  EC50: 3.7 µM (active)
BJ [3]
  EC50: 2.57 µM (inconclusive)
[4]
  EC50: 3.39 µM (active)
[5]
  EC50: > 32 µM (inactive)
[6]
  AC50: 4.04 µM (active)
BJ [7]
  EC50: 5.02 µM (inconclusive)

## COCC(=O)n1nc(-c2ccc(Cl)cc2)nc1NCc1ccc(F)cc1
Prothrombin
  IC50: 1.8 µM (active)
Saccharomyces cerevisiae
  IC50: > 100 µM (inactive)
[8]
  IC50: > 100 µM (inactive)

## O=C(NCCc1ccccc1)Nc1ccc2nc(-c3ccco3)c(-c3ccco3)nc2c1
[9]
  IC50: 0.472 µM (active)

## CCn1c(-c2ccc(Cl)cc2)n[nH]c1=S
[10]
  IC50: > 100 µM (inactive)
[11]
  IC50: 5.43 µM (active)
[12]
  AC50: 6.5 µM (active)
